In this experiment the test system is fungi. The experiment in a line: Antifungal activity of the cyclic nucleus. It counts as cell-based. Particulars: in words; nucleus lacking the linoleoyl side chain.

The structures appear in SMILES notation. Numbered stars: 1 amine (or outer) side, 2 acyl side, 3 side chain; on linkers, the order of the positions; unused ones are H or OH. Bridge positions count the residues as written; N and C are the ends. Square brackets hold non-standard residues; d marks the D form. Peptide text beside a SMILES is read from it. Orn(4R-OH,5R-OH) = O=C([C@H](C[C@@H](O)[C@@H](O)N[*:3])N[*:1])[*:2]; hTyr(3S-OH,4S-OH) = N[C@H](C(=O)O)[C@H](O)[C@@H](O)c1ccc(O)cc1; Pro(3S-OH,4S-Me) = C[C@H]1CN[C@H](C(=O)O)[C@H]1O; Hyp = O=C(O)[C@@H]1C[C@@H](O)CN1

In the case of `C[C@@H](O)[C@@H]1NC(=O)[C@H]([C@H](O)[C@@H](O)c2ccc(O)cc2)NC(=O)[C@@H]2C[C@@H](O)CN2C(=O)[C@H]([C@@H](C)O)NC(=O)[C@@H](N)C[C@@H](O)[C@@H](O)NC(=O)[C@@H]2[C@@H](O)[C@@H](C)CN2C1=O` [A-30912A nucleus] (H-[Orn(4R-OH,5R-OH)]T[Hyp][hTyr(3S-OH,4S-OH)]T[Pro(3S-OH,4S-Me)]; lactam 1-C), the antifungal activity result was “substantially devoid of antifungal activity”.
